Like-named read-outs stand apart in the source and are kept apart here.
Legend:
[1] = Solubility test in distilled water; format: physicochemical; conditions: 10 mg/ml, FIG. 1
[2] = background statement; cited from earlier work
[3] = cited from earlier work

Row | solubility in water [1] | Structure (SMILES) | solubility in water [2] | fasting bioavailability ([3]; fasting) | time to reach the highest blood concentration ([3]; oral administration) | blood concentration of active metabolite versus isotretinoin ([3]; 6 hours after administration)
1 | hardly dissolved in water | CC1=C(/C=C/C(C)=C/C=C/C(C)=C\C(=O)O)C(C)(C)CCC1 [isotretinoin, 13-cis-retinoic acid] | low | about 20% | 2 to 4 h | –
2 | – | CC1=C(/C=C/C(C)=C/C=C/C(C)=C/C(=O)O)C(C)(C)CCC1=O [4-oxo-isotretinoin] | – | – | – | higher than the blood concentration of isotretinoin
